# PubChem BioAssay (NCI)
#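 Test compounds were applied to cells in 96-well plates for 48 hours at 5 doses. TGI is the concentration that stops growth completely.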
# Columns and labels:
# Assay in all cases: inhibition of tumour cell growth, NCI panel, 48 h
# SK-OV-3 ovarian = system: SK-OV-3 ovarian
# LOX IMVI melanoma = system: LOX IMVI melanoma
# SW-620 colon = system: SW-620 colon
# A549 NSCLC = system: A549 NSCLC
# UACC-257 melanoma = system: UACC-257 melanoma
# K-562 leukemia = system: K-562 leukemia
# DLD-1 colon = system: DLD-1 colon
# HCT-116 colon = system: HCT-116 colon
# KM12 colon = system: KM12 colon
# SNB-19 CNS = system: SNB-19 CNS
# HCT-15 colon = system: HCT-15 colon
# RXF-631 renal = system: RXF-631 renal
# SK-MEL-2 melanoma = system: SK-MEL-2 melanoma
# MALME-3M melanoma = system: MALME-3M melanoma
# SR leukemia = system: SR leukemia
# NCI-H226 lung = system: NCI-H226 lung
# M14 melanoma = system: M14 melanoma
# HL-60(TB) leukemia = system: HL-60(TB) leukemia
# HT29 colon = system: HT29 colon
# IGROV1 ovarian = system: IGROV1 ovarian
# DMS 273 small cell lung = system: DMS 273 small cell lung
# KM20L2 colon = system: KM20L2 colon
# SK-MEL-28 melanoma = system: SK-MEL-28 melanoma
# SNB-75 CNS = system: SNB-75 CNS
# RPMI-8226 leukemia = system: RPMI-8226 leukemia
# SNB-78 CNS = system: SNB-78 CNS
# OVCAR-3 ovarian = system: OVCAR-3 ovarian
# MOLT-4 leukemia = system: MOLT-4 leukemia
# U251 CNS = system: U251 CNS
# UO-31 renal = system: UO-31 renal
# NCI-H522 lung = system: NCI-H522 lung
# TK-10 renal = system: TK-10 renal
# 786-0 renal = system: 786-0 renal
# EKVX NSCLC = system: EKVX NSCLC
# CAKI-1 renal = system: CAKI-1 renal
# HOP-92 NSCLC = system: HOP-92 NSCLC
# NCI-H23 lung = system: NCI-H23 lung
# UACC-62 melanoma = system: UACC-62 melanoma
# ACHN renal = system: ACHN renal
# SN12C renal = system: SN12C renal
# SF-295 CNS = system: SF-295 CNS
# CCRF-CEM leukemia = system: CCRF-CEM leukemia
# M19-MEL melanoma = system: M19-MEL melanoma
# XF 498 CNS = system: XF 498 CNS
# LXFL 529 NSCLC = system: LXFL 529 NSCLC
# SF-268 CNS = system: SF-268 CNS
# SF-539 CNS = system: SF-539 CNS
# HOP-62 NSCLC = system: HOP-62 NSCLC
# COLO 205 colon = system: COLO 205 colon
# DMS 114 small cell lung = system: DMS 114 small cell lung
# HOP-18 NSCLC = system: HOP-18 NSCLC
# OVCAR-5 ovarian = system: OVCAR-5 ovarian
# NCI-H460 lung = system: NCI-H460 lung
# OVCAR-4 ovarian = system: OVCAR-4 ovarian
# RXF 393 renal = system: RXF 393 renal
# OVCAR-8 ovarian = system: OVCAR-8 ovarian
# HCC-2998 colon = system: HCC-2998 colon
# SK-MEL-5 melanoma = system: SK-MEL-5 melanoma
# A498 renal = system: A498 renal
structure (smiles),measurement,setting,value
COc1cccc2c1N[S@](=O)S2,TGI,SK-OV-3 ovarian,> 100 µM
same,TGI,LOX IMVI melanoma,> 100 µM
same,TGI,SW-620 colon,> 100 µM
same,TGI,A549 NSCLC,> 100 µM
same,TGI,UACC-257 melanoma,> 100 µM
same,TGI,K-562 leukemia,> 100 µM
same,TGI,DLD-1 colon,> 100 µM
same,TGI,HCT-116 colon,> 100 µM
same,TGI,KM12 colon,> 100 µM
same,TGI,SNB-19 CNS,> 100 µM
same,TGI,HCT-15 colon,> 100 µM
same,TGI,RXF-631 renal,> 100 µM
same,TGI,SK-MEL-2 melanoma,> 100 µM
same,TGI,MALME-3M melanoma,> 100 µM
same,TGI,SR leukemia,> 100 µM
same,TGI,NCI-H226 lung,> 100 µM
same,TGI,M14 melanoma,> 100 µM
same,TGI,HL-60(TB) leukemia,> 100 µM
same,TGI,HT29 colon,> 100 µM
same,TGI,IGROV1 ovarian,> 100 µM
same,TGI,DMS 273 small cell lung,> 100 µM
same,TGI,KM20L2 colon,> 100 µM
same,TGI,SK-MEL-28 melanoma,> 100 µM
same,TGI,SNB-75 CNS,> 100 µM
same,TGI,RPMI-8226 leukemia,> 100 µM
same,TGI,SNB-78 CNS,> 100 µM
same,TGI,OVCAR-3 ovarian,> 100 µM
same,TGI,MOLT-4 leukemia,> 100 µM
same,TGI,U251 CNS,> 100 µM
same,TGI,UO-31 renal,> 100 µM
same,TGI,NCI-H522 lung,> 100 µM
same,TGI,TK-10 renal,> 100 µM
same,TGI,786-0 renal,> 100 µM
same,TGI,EKVX NSCLC,> 100 µM
same,TGI,CAKI-1 renal,> 100 µM
same,TGI,HOP-92 NSCLC,> 100 µM
same,TGI,NCI-H23 lung,> 100 µM
same,TGI,UACC-62 melanoma,> 100 µM
same,TGI,ACHN renal,> 100 µM
same,TGI,SN12C renal,> 100 µM
same,TGI,SF-295 CNS,> 100 µM
same,TGI,CCRF-CEM leukemia,> 100 µM
same,TGI,M19-MEL melanoma,> 100 µM
same,TGI,XF 498 CNS,> 100 µM
same,TGI,LXFL 529 NSCLC,> 100 µM
same,TGI,SF-268 CNS,> 100 µM
same,TGI,SF-539 CNS,> 100 µM
CNCCCCN(C)/[N+]([O-])=N\O,TGI,SK-OV-3 ovarian,> 100 µM
same,TGI,HOP-62 NSCLC,> 100 µM
same,TGI,SW-620 colon,> 100 µM
same,TGI,A549 NSCLC,> 100 µM
same,TGI,COLO 205 colon,> 100 µM
same,TGI,UACC-257 melanoma,> 100 µM
same,TGI,K-562 leukemia,> 100 µM
same,TGI,DLD-1 colon,> 100 µM
same,TGI,HCT-116 colon,> 100 µM
same,TGI,KM12 colon,> 100 µM
same,TGI,SNB-19 CNS,> 100 µM
same,TGI,HCT-15 colon,> 100 µM
same,TGI,RXF-631 renal,> 100 µM
same,TGI,SK-MEL-2 melanoma,> 100 µM
same,TGI,DMS 114 small cell lung,> 100 µM
same,TGI,MALME-3M melanoma,> 100 µM
same,TGI,NCI-H226 lung,> 100 µM
same,TGI,M14 melanoma,> 100 µM
same,TGI,HL-60(TB) leukemia,> 100 µM
same,TGI,HOP-18 NSCLC,> 100 µM
same,TGI,HT29 colon,> 100 µM
same,TGI,IGROV1 ovarian,> 100 µM
same,TGI,DMS 273 small cell lung,> 100 µM
same,TGI,OVCAR-5 ovarian,> 100 µM
same,TGI,KM20L2 colon,> 100 µM
same,TGI,SK-MEL-28 melanoma,> 100 µM
same,TGI,SNB-75 CNS,> 100 µM
same,TGI,RPMI-8226 leukemia,> 100 µM
same,TGI,NCI-H460 lung,> 100 µM
same,TGI,SNB-78 CNS,> 100 µM
same,TGI,OVCAR-4 ovarian,> 100 µM
same,TGI,OVCAR-3 ovarian,> 100 µM
same,TGI,MOLT-4 leukemia,> 100 µM
same,TGI,U251 CNS,> 100 µM
same,TGI,UO-31 renal,> 100 µM
same,TGI,RXF 393 renal,> 100 µM
same,TGI,NCI-H522 lung,> 100 µM
same,TGI,786-0 renal,> 100 µM
same,TGI,EKVX NSCLC,> 100 µM
same,TGI,CAKI-1 renal,> 100 µM
same,TGI,HOP-92 NSCLC,> 100 µM
same,TGI,OVCAR-8 ovarian,> 100 µM
same,TGI,NCI-H23 lung,> 100 µM
same,TGI,UACC-62 melanoma,> 100 µM
same,TGI,ACHN renal,> 100 µM
same,TGI,SN12C renal,> 100 µM
same,TGI,SF-295 CNS,> 100 µM
same,TGI,CCRF-CEM leukemia,> 100 µM
same,TGI,M19-MEL melanoma,> 100 µM
same,TGI,HCC-2998 colon,> 100 µM
same,TGI,SK-MEL-5 melanoma,> 100 µM
same,TGI,LXFL 529 NSCLC,> 100 µM
same,TGI,SF-268 CNS,> 100 µM
same,TGI,SF-539 CNS,> 100 µM
O=C(CCc1n[nH]c(=S)o1)Nc1ccc(Cl)cc1Cl,TGI,SK-OV-3 ovarian,> 100 µM
same,TGI,HOP-62 NSCLC,> 100 µM
same,TGI,SW-620 colon,29.9 µM
same,TGI,A549 NSCLC,> 100 µM
same,TGI,COLO 205 colon,> 100 µM
same,TGI,A498 renal,> 100 µM
same,TGI,UACC-257 melanoma,> 100 µM
same,TGI,K-562 leukemia,> 100 µM
same,TGI,DLD-1 colon,> 100 µM
same,TGI,HCT-116 colon,> 100 µM
same,TGI,KM12 colon,> 100 µM
same,TGI,SNB-19 CNS,> 100 µM
same,TGI,HCT-15 colon,46.1 µM
same,TGI,RXF-631 renal,> 100 µM
same,TGI,DMS 114 small cell lung,> 100 µM
same,TGI,MALME-3M melanoma,> 100 µM
same,TGI,NCI-H226 lung,> 100 µM
same,TGI,M14 melanoma,> 100 µM
same,TGI,HL-60(TB) leukemia,> 100 µM
same,TGI,HOP-18 NSCLC,> 100 µM
same,TGI,HT29 colon,> 100 µM
same,TGI,IGROV1 ovarian,> 100 µM
same,TGI,DMS 273 small cell lung,> 100 µM
same,TGI,OVCAR-5 ovarian,> 100 µM
same,TGI,KM20L2 colon,> 100 µM
same,TGI,SK-MEL-28 melanoma,> 100 µM
same,TGI,SNB-75 CNS,> 100 µM
same,TGI,RPMI-8226 leukemia,44.4 µM
same,TGI,NCI-H460 lung,> 100 µM
same,TGI,SNB-78 CNS,> 100 µM
same,TGI,OVCAR-4 ovarian,> 100 µM
same,TGI,OVCAR-3 ovarian,> 100 µM
same,TGI,MOLT-4 leukemia,> 100 µM
same,TGI,U251 CNS,> 100 µM
same,TGI,UO-31 renal,> 100 µM
same,TGI,NCI-H522 lung,> 100 µM
same,TGI,TK-10 renal,> 100 µM
same,TGI,786-0 renal,> 100 µM
same,TGI,EKVX NSCLC,> 100 µM
same,TGI,CAKI-1 renal,> 100 µM
same,TGI,HOP-92 NSCLC,> 100 µM
same,TGI,OVCAR-8 ovarian,> 100 µM
same,TGI,NCI-H23 lung,> 100 µM
same,TGI,UACC-62 melanoma,> 100 µM
same,TGI,ACHN renal,> 100 µM
same,TGI,SN12C renal,> 100 µM
same,TGI,SF-295 CNS,> 100 µM
same,TGI,CCRF-CEM leukemia,> 100 µM
same,TGI,M19-MEL melanoma,> 100 µM
same,TGI,HCC-2998 colon,> 100 µM
same,TGI,SK-MEL-5 melanoma,> 100 µM
same,TGI,LXFL 529 NSCLC,> 100 µM
same,TGI,SF-268 CNS,> 100 µM
same,TGI,SF-539 CNS,> 100 µM
